The results in this text go back to patent US5280047A, “2-(4-substituted)phenylmethylene derivatives and methods of use” (G. D. Searle & Co., priority 1993, dated 1994).

“And” between values parts separate entries of the source, which are not always exact repeats. Equal values may be shown once. Read-outs that look alike come from different tables or passages of the source.

In general, IC50 refers to the concentration needed to halve the response being measured. Broadly, the inhibition is the change of the read-out against control, counted positive when it falls.

This assay deals with T1, 5-lipoxygenase (Rattus norvegicus, UniProt P12527).
T1 construct: supernatant fraction of Rat Basophilic Leukemia Cell Homogenate (RBL-1) serves as a 5-lipoxygenase enzyme source; endogenous in cells; host or cells: RBL-1 (rat basophilic leukemia) cells, 100,000 x g supernatant of the homogenate
T1 sequence (P12527 1-673): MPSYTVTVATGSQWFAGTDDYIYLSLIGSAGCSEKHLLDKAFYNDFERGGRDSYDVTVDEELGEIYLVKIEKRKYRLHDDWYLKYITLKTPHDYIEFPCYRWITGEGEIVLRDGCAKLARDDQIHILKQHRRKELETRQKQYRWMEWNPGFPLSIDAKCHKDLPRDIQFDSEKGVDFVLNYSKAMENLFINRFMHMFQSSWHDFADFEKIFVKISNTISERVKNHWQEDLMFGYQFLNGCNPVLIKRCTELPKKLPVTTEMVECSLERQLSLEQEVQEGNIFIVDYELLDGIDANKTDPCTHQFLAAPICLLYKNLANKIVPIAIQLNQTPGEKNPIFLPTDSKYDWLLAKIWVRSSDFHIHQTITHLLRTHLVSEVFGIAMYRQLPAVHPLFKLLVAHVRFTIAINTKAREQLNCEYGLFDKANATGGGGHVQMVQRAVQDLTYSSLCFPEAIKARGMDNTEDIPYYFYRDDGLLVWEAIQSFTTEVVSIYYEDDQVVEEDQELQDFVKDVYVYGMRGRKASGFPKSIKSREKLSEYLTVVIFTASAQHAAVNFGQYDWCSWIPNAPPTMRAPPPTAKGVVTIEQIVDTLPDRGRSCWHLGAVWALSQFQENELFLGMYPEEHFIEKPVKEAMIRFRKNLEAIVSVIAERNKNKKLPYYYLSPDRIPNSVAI
Kind of assay: Inhibition of 5-lipoxygenase, in vitro (5-HETE synthesis, RBL-1 100,000 x g supernatant). It counts as biochemical. The following applies: for inhibition at 100 µM: RBL-1 supernatant, 5-HETE synthesis. The method, then: The compounds of the invention are evaluated with respect to 5-lipoxygenaseinhibition according to the following assay procedure.
Inhibition of 5-lipoxygenase, in vitro : anti-inflammatory, anti-allergy activities.
The 100,000 x g supernatant fraction of Rat Basophilic Leukemia Cell Homogenate (RBL-1) serves as a 5-lipoxygenase enzyme source. The enzyme is incubated with [1-^14 C)-arachidonic acid and Ca++ in the presence and absence of test compound. The product of 5-lipoxygenase, 5-hydroxyeicosatetraenoic acid (5-HETE), is separated by thin-layer chromatography and measured by radioactivity.
When more than one result is listed, this indicates the results from additional tests.

Setting [1] is: Rat Basophilic Leukemia Cell Homogenate (RBL-1) supernatant, [1-14C]-arachidonic acid and Ca++, several values = results from additional tests, read-out: 5-Lipoxygenase Inhibition IC50.

Regarding `CCCCCCc1ccc(/C=C(/C(C)=O)C(=O)c2ccccc2)cc1` [Example 2, 2Z-[(4-hexylphenyl)methylene]-1-phenyl-1,3-butanedione], the IC50 under setting [1] was determined as 18 µM.
Regarding `CCCCCCCCc1ccc(C=C(C(=O)OCC)C(=O)OCC)cc1` [Example 4, Diethyl 2-[(4-octylphenyl)methylene]propanedioate], testing at 100 µM gave an inhibition of 45.6%.
Turning to `CCCCCCCCc1ccc(/C=C/C(C)=O)cc1` [Example 8, 4-(4-octylphenyl)-3E-buten-2-one], the IC50 turned out to be 100 µM.
For `CCCCCCc1ccc(/C=C(\C(C)=O)C(=O)OCC)cc1` [Example 1A, Ethyl 2E-[(4-hexylphenyl)methylene]-3-oxobutanoate], the IC50 under setting [1] was 3 µM and 7.9 µM and 15 µM.
The same measure, in the same setting: the same measure for `CCCCCCc1ccc(/C=C(/C(C)=O)C(=O)OCC)cc1` [Example 1B, Ethyl 2Z-[(4-hexylphenyl)methylene]-3-oxobutanoate]: 7.6 µM and 5.9 µM.
As for `CCCCCCCCc1ccc(/C=C(/C(C)=O)C(=O)OCC)cc1` [Example 3D, Ethyl 2Z-[(4-octylphenyl)methylene]-3-oxobutanoate], 100 µM produced 42% inhibition.
As for `CCOC(=O)/C(=C\c1ccc(Cl)cc1)C(C)=O` [Example 6F, Ethyl 2Z-[(4-chlorophenyl)methylene]-3-oxobutanoate], the IC50 under setting [1] came to 56 µM.
Turning to `CCCCCCCCc1ccc(C=C(C(C)=O)C(C)=O)cc1` [Example 5, 3-[(4-octylphenyl)methylene]-2,4-pentanedione], the half-inhibitory concentration (IC50) under setting [1] came out at 4.4 µM.
Turning to `CCOC(=O)/C(=C/c1ccc([N+](=O)[O-])cc1)C(C)=O` [Example 7G, Ethyl 2E-[(4-nitrophenyl)methylene]-3-oxobutanoate], the IC50 under setting [1] stood at 74 µM.
On the same count and under the same terms, the same measure for `CCCCCCc1ccc(C=C(C(=O)OCC)C(=O)OCC)cc1` [Example 10, Diethyl 2-[(4-hexylphenyl)methylene]propanedioate]: 100 µM; for `CCOC(=O)/C(=C/c1ccc(Cl)cc1)C(C)=O` [Example 6E, Ethyl 2E-[(4-chlorophenyl)methylene]-3-oxobutanoate]: 47 µM; for `CCOC(=O)/C(=C\c1ccc([N+](=O)[O-])cc1)C(C)=O` [Example 7H, Ethyl 2Z-[(4-nitrophenyl)methylene]-3-oxobutanoate]: 78 µM.
Take `CCCCCCCCc1ccc(/C=C(\C(C)=O)C(=O)OCC)cc1` [Example 3C, Ethyl 2E-[(4-octylphenyl)methylene]-3-oxobutanoate]: the IC50 under setting [1] was 5.9 µM and 14 µM.
In the case of `CCCCCCc1ccc(/C=C/C(C)=O)cc1` [Example 9, 4-(4-hexylphenyl)-3E-buten-2-one], under setting [1], the IC50 came out at 100 µM.
